Reference: patent US7256174B2, “Somatostatin and somatostatin agonists for treating insulin insensitivity and Syndrome X” (Societe de Conseils de Recherches et d'Applications …, priority 1997, dated 2007)
Bridge positions count the residues as written; N and C are the ends. Square brackets hold non-standard residues; d marks the D form. Peptide text beside a SMILES is read from it.

Key:
[1] = Insulin sensitivity study, oral glucose challenge after chronic treatment; type: in vivo, fatty (fa/fa) Zucker rats; conditions: 3 mg/kg s.c. twice daily, 7 days
Procedure: Male fatty Zucker rats (Harlan-Olac, Bicester, Oxon, U.K.), which were 15-17 weeks old, were randomly divided into two groups. The animals were house in pairs in a normal 12 hour light:12 hour darkness cycle at 20±2° C. and fed a standard laboratory rat diet (Beekay rat and mouse diet, Bantin & Kingman, Hull, Humberside, U.K.) ad libitum. For the group assigned to receive drug treatment, the rats received BIM-23268C at 3 mg/kg, by subcutaneous injection, twice a day at 10:00 AM and 5:00 PM. The other group, the control group, was treated with a subcutaneous injection of 0.1 ml/100 g of saline twice a day at 10:00 AM and 5:00 PM. […] On the last day of treatment, at 5:00 PM food was removed, and the rats were fasted overnight.
A method for assessing insulin sensitivity is to administer an oral glucose challenge and monitoring the secretion of insulin and disposal of glucose from the blood stream over a 240 min period (Bergman, R. N., et al., Endocrine Review 6:45-86 (1985)). […] 20 μl blood samples were taken from tail vein (Abdel-Halim, S. M., et al., Diabetes 43:281-288 (1994)) at −60 min, −30 min, 0 min, 30 min, 60 min, 90 min, 120 min, and 240 min.
The 20 μl samples were taken into 380 μl of hemolysis reagents (Sigma, Poole, Dorset, UK) containing 50 mg/liter of digitonin (Cat# D-1407) and 100 mg/liter of Maleimide (M-3766). From this, 100 μl of the hemolysed blood sample was added to 0.9 ml of Tinder reagent (Sigma Enzymatic calorimetric assay for blood glucose, Cat# 315-100, Sigma Chemical Co. Ltd, Poole, Dorset, UK). Blood glucose was determined according to vendor's recommendation at 505 nm.
Insulin was measured by the conventional radioimmunoassay method as described (Dunmore, S., & Beloff-Chain, A., J Endocrinol. 92:15-21 (1982)). Samples were assayed in triplicates with a 1:30000 dilution of an insulin antiserum (from guinea pig)raised in the laboratory (Dunmore, S. J., et al., J. Endocrinol. 137:375-381 (1993), and using ^125I-labelled bovine insulin, iodinated by the chloramine T method (Sambrook, et al., Molecular Cloning—A Laboratory Manual, Ed. 2., Cold Spring Harbor Laboratory Press, 1989). Rat insulin (2000U/0.1 ml, Novo Nordisk Laboratories, Basingstoke, Hants, U.K.) was used as a standard in the assay. The standards and samples were diluted in assay buffer containing NaH2PO4 5.7 g/L, bovine serum albumin (Sigma A4378, Sigma Chemical Co. Ltd., Poole, Dorset, UK) 5.0 g/L, NaN3 1.0 g/L buffered to pH 7.4). Antibody-bound insulin was separated on from free insulin by the addition of a second antibody (donkey anti-guinea pig Ig) coated on cellulose, Sac-Cel (IDS, Boldon, Tyne & Wear, UK). The antibody-bound insulin precipitate was separated by centrifugation. Counts bound were measured on an LKB Rackgamma solid scintillation counter.

[2] = Lipidemia study, plasma glycerol and triglycerides; type: in vivo, Obese (fa/fa) Zucker rats
Procedure: Obese (fa/fa) Zucker rats were treated as in example 1 above. On the last day of treatment (day 6), food was removed at 5:00 p.m., and the rats were fasted overnight. At 9:00 a.m. the next day, the animals were subjected to a glucose challenge, given as 0.8 gram/kg of glucose orally. Periodic 400 μl of blood samples were taken from the tail vein (Peterson, R. G., ILAR News, 32:16-19 (1990)) 60 min. and 30 min. before and at 30, 60, 90, and 120 min. after the administration of the glucose challenge (0.8 gram/kg orally). Aprotinin (Traysylol, Bayer UK, Hayward's Health, W. Sussex, U.K.) and heparin (Sigma Chemical Co., Poole, Dorset, U.K.) were added to the blood samples to a final concentration of 400 KIU/ml and 100 units/ml, respectively. Plasma fractions were prepared from these samples by centrifugation at 4000×G in a microfuge, for the estimation of triglycerides and glycerol. Samples were then stored at −80° C. until assayed.
Plasma glycerol and triglycerides were determined using the Sigma Enzymatic (Tinder) calorimetric assay kit (Cat #337-B, Sigma Chemical Co., Poole, Dorset, U.K.) and measuring absorbance at 540 nm in a spectrophotometer.

[3] = Weight loss study, chronic (6 day) treatment; conditions: 3 mg/kg s.c. twice a day
[4] = 0.8 g/kg oral glucose challenge
[5] = 3 mg/kg s.c. twice a day, six days, samples 30 and 60 minutes before oral glucose challenge
[6] = throughout the 2-hour test period after oral glucose challenge

SMILES: C[C@@H](O)[C@@H]1NC(=O)[C@H](CCCCN)NC(=O)[C@@H](Cc2c[nH]c3ccccc23)NC(=O)[C@H](Cc2ccccc2)NC(=O)[C@H](Cc2ccccc2)NC(=O)[C@@H](N)CSSC[C@@H](C(N)=O)NC(=O)[C@H](Cc2ccccc2)NC1=O [BIM-23268, H-Cys-Phe-Phe-D-Trp-Lys-Thr-Phe-Cys-NH2] (H-CFF[dW]KTFC-NH2; disulfide 1-8)
- hyperinsulinemia [1]: suppressing
- insulin-sensitivity [1]: improvement
- glucose tolerance [1, 4]: did not show an impairment
- plasma glucose profile versus untreated group [1, 4]: not significantly different
- glucose stimulated insulin secretion to the glucose challenge ([1]; 0.8 g/kg oral glucose challenge, vs saline control): significant suppression
- plasma glycerol [2, 5]: significantly lowered
- plasma triglycerides [2, 5]: significantly lowered
- reducing hypertriglyceridemia ([2]; 6-day treatment at 3 mg/kg s.c. twice a day): effective
- plasma glycerol [2, 6]: significantly lower
- plasma triglycerides [2, 6]: significantly lower
- body weight gain versus control ([3]; six days): lower
- toxic effect / appearance of treated group ([3]; six days): appeared healthy
- average food consumption ([3]; six days (control 26.0)): 25.9 g/rat/day
- difference in amount of food consumed over the entire treatment period ([3]; six days, vs control): no difference
- group mean weight after six days ([3]; after six days (control 414.09 to 418.89)): 413.6
- group mean weight at the start of the trial ([3]; start of trial): 413.6
